Assay results as given in US20250026724A1, “(1,4,5-TRISUBSTITUTED 1H-PYRAZOL-3-YL)OXY-2-ALKYLTHIOALKYL ACIDS AND -ALKYL ACID DERIVATIVES, SALTS THEREOF AND USE THEREOF AS ACTIVE HERBICIDAL INGREDIENTS” (BAYER AKTIENGESELLSCHAFT, priority 2021, published 2025).

Tests used:
Assay in all cases: Post-emergence herbicidal action, greenhouse pot trial
Assay type in all cases: in vivo
Veronica persica (VERPE) = settings: visual rating after about 3 weeks; for pest or weed control at 320 g/ha: Veronica persica, 504 h, read-out: Post-emergence effect at 320 g/ha against VERPE in %
In short: (§1)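 Sandy loam pots, greenhouse; one-leaf stage (2–3 wk after sowing); WP/EC in water, 0.5% additive, 600 l/ha spray volume; ≤320 g/ha; visual score vs untreated at ~3 wk, 0–100%.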

[1] = test system: Digitaria sanguinalis (DIGSA); settings: visual rating after about 3 weeks; for pest or weed control at 320 g/ha: Digitaria sanguinalis, 504 h, read-out: Post-emergence effect at 320 g/ha against DIGSA in %
In short: as §1

[2] = test system: Echinochloa crus-galli (ECHCG); settings: visual rating after about 3 weeks; for pest or weed control at 320 g/ha: read-out: Post-emergence effect at 320 g/ha against ECHCG in %
In short: as §1

[3] = test system: Alopecurus myosuroides (ALOMY); settings: visual rating after about 3 weeks
In short: as §1

Bassia scoparia (KCHSC) = settings: for Post-emergence effect at 20 g/ha against KCHSC in %: visual rating after about 3 weeks; for pest or weed control at 80 g/ha / pest or weed control at 320 g/ha: Bassia scoparia, 504 h, read-out: Post-emergence effect against KCHSC
In short: as §1

Lolium rigidum (LOLRI) = settings: visual rating after about 3 weeks; for pest or weed control at 320 g/ha: Lolium rigidum, 504 h, read-out: Post-emergence effect at 320 g/ha against LOLRI in %
In short: as §1

Viola tricolor (VIOTR) = settings: for pest or weed control at 20 g/ha / pest or weed control at 80 g/ha / pest or weed control at 320 g/ha: Viola tricolor, 504 h, read-out: Post-emergence effect against VIOTR
In short: as §1

Avena fatua (AVEFA) = settings: visual rating after about 3 weeks; for pest or weed control at 320 g/ha: Avena fatua, 504 h, read-out: Post-emergence effect at 320 g/ha against AVEFA in %
In short: as §1

[4] = test system: Pharbitis purpurea (PHBPU); settings: visual rating after about 3 weeks; for pest or weed control at 320 g/ha / pest or weed control at 80 g/ha: Ipomoea purpurea, 504 h; for pest or weed control at 320 g/ha: read-out: Post-emergence effect at 320 g/ha against PHBPU in %; for pest or weed control at 80 g/ha: read-out: Post-emergence effect at 80 g/ha against PHBPU in %
In short: as §1

[5] = test system: Abutilon theophrasti (ABUTH); settings: visual rating after about 3 weeks; for pest or weed control at 80 g/ha / pest or weed control at 320 g/ha: Abutilon theophrasti, 504 h; for pest or weed control at 80 g/ha: read-out: Post-emergence effect at 80 g/ha against ABUTH in %; for pest or weed control at 320 g/ha: read-out: Post-emergence effect at 320 g/ha against ABUTH in %
In short: as §1

[6] = test system: Polygonum convolvulus (POLCO); settings: Fallopia convolvulus, 504 h, visual rating after about 3 weeks; for pest or weed control at 80 g/ha: read-out: Post-emergence effect at 80 g/ha against POLCO in %; for pest or weed control at 320 g/ha: read-out: Post-emergence effect at 320 g/ha against POLCO in %
In short: as §1

Setaria viridis (SETVI) = settings: visual rating after about 3 weeks; for pest or weed control at 320 g/ha: Setaria viridis, 504 h, read-out: Post-emergence effect at 320 g/ha against SETVI in %
In short: as §1

[7] = test system: Amaranthus retroflexus (AMARE); settings: visual rating after about 3 weeks; for pest or weed control at 80 g/ha / pest or weed control at 320 g/ha: Amaranthus retroflexus, 504 h; for pest or weed control at 80 g/ha: read-out: Post-emergence effect at 80 g/ha against AMARE in %; for pest or weed control at 320 g/ha: read-out: Post-emergence effect at 320 g/ha against AMARE in %
In short: as §1

[8] = test system: Matricaria inodora (MATIN); settings: Tripleurospermum inodorum, 504 h, visual rating after about 3 weeks; for pest or weed control at 80 g/ha: read-out: Post-emergence effect at 80 g/ha against MATIN in %; for pest or weed control at 320 g/ha: read-out: Post-emergence effect at 320 g/ha against MATIN in %
In short: as §1

[9] = Echinochloa crus-galli, 504 h, 320 g/ha

CCOC(=O)C(Oc1nn(-c2ccccc2F)c(-c2ccc(F)nc2)c1Br)SC (single isomer, unassigned) [Example I-40]
Post-emergence effect at 20 g/ha against VERPE in % (Veronica persica (VERPE); 20 g/ha): 80% | Post-emergence effect at 80 g/ha against VERPE in % (Veronica persica (VERPE)): 80% | pest or weed control at 320 g/ha (Veronica persica (VERPE)): 80% | Post-emergence action at 20 g/ha against DIGSA in % ([1]; 20 g/ha): 90% | Post-emergence effect at 80 g/ha against DIGSA in % [1]: 90% | Post-emergence effect at 320 g/ha against DIGSA in % ([1]; 320 g/ha): 90% | Post-emergence effect at 20 g/ha against ECHCG in % ([2]; 20 g/ha): 80% | Post-emergence effect at 80 g/ha against ECHCG in % ([2]; 80 g/ha): 80% | Post-emergence effect at 320 g/ha against ECHCG in % ([2]; 320 g/ha): 90% | Post-emergence effect at 20 g/ha against ALOMY in % ([3]; 20 g/ha): 80% | Post-emergence effect at 80 g/ha against ALOMY in % ([3]; 80 g/ha): 80% | Post-emergence effect at 320 g/ha against ALOMY in % ([3]; 320 g/ha): 80% | Post-emergence effect at 20 g/ha against KCHSC in % (Bassia scoparia (KCHSC)): 80% | pest or weed control at 80 g/ha (Bassia scoparia (KCHSC)): 90% | pest or weed control at 320 g/ha (Bassia scoparia (KCHSC)): 90% | Post-emergence effect at 20 g/ha against LOLRI in % (Lolium rigidum (LOLRI); 20 g/ha): 80% | Post-emergence effect at 80 g/ha against LOLRI in % (Lolium rigidum (LOLRI); 80 g/ha): 80% | Post-emergence effect at 320 g/ha against LOLRI in % (Lolium rigidum (LOLRI); 320 g/ha): 90% | Post-emergence effect against VIOTR (Viola tricolor (VIOTR); 320 g/ha): 80% | Post-emergence effect at 20 g/ha against AVEFA in % (Avena fatua (AVEFA); 20 g/ha): 80% | Post-emergence effect at 80 g/ha against AVEFA in % (Avena fatua (AVEFA); 80 g/ha): 90% | pest or weed control at 320 g/ha (Avena fatua (AVEFA)): 90%

CCOC(=O)C(Oc1nn(-c2ncccc2F)c(-c2cncc(F)c2)c1C1CC1)SC (stereo not shown) [Example I-41]
pest or weed control at 320 g/ha (Veronica persica (VERPE)): 80% | pest or weed control at 320 g/ha [4]: 80% | Post-emergence action at 20 g/ha against ABUTH in % [5]: 80% | pest or weed control at 80 g/ha [5]: 90% | pest or weed control at 320 g/ha [5]: 90% | pest or weed control at 80 g/ha [6]: 80% | pest or weed control at 320 g/ha [6]: 90% | pest or weed control at 320 g/ha (Setaria viridis (SETVI)): 90% | pest or weed control at 320 g/ha [2, 9]: 90% | pest or weed control at 320 g/ha ([3]; Alopecurus myosuroides, 504 h, 320 g/ha, read-out: Post-emergence effect at 320 g/ha against ALOMY in %): 80% | pest or weed control at 320 g/ha (Bassia scoparia (KCHSC)): 90% | pest or weed control at 20 g/ha (Viola tricolor (VIOTR)): 90% | pest or weed control at 80 g/ha (Viola tricolor (VIOTR)): 90% | pest or weed control at 320 g/ha (Viola tricolor (VIOTR); 320 g/ha): 90% | Post-emergence effect at 20 g/ha against AMARE in % [7]: 80% | pest or weed control at 80 g/ha [7]: 90% | pest or weed control at 320 g/ha [7]: 90% | pest or weed control at 80 g/ha [8]: 80% | pest or weed control at 320 g/ha [8]: 90% | pest or weed control at 320 g/ha (Avena fatua (AVEFA)): 100%

CCOC(=O)C(Oc1nn(-c2ncccc2F)c(-c2cncc(F)c2)c1Br)SC (stereo not shown) [Example I-39]
pest or weed control at 320 g/ha (Veronica persica (VERPE)): 80% | pest or weed control at 80 g/ha [4]: 80% | pest or weed control at 320 g/ha [4]: 90% | Post-emergence action at 20 g/ha against ABUTH in % [5]: 80% | pest or weed control at 80 g/ha [5]: 90% | pest or weed control at 320 g/ha [5]: 90% | pest or weed control at 80 g/ha [6]: 80% | pest or weed control at 320 g/ha [6]: 80% | Post-emergence effect at 80 g/ha against DIGSA in % [1]: 80% | pest or weed control at 320 g/ha ([1]; 320 g/ha): 90% | Post-emergence effect at 80 g/ha against SETVI in % (Setaria viridis (SETVI); 80 g/ha): 90% | pest or weed control at 320 g/ha (Setaria viridis (SETVI)): 90% | pest or weed control at 80 g/ha ([2]; Echinochloa crus-galli, 504 h, 80 g/ha, read-out: Post-emergence effect at 80 g/ha against ECHCG in %): 90% | pest or weed control at 320 g/ha [2, 9]: 90% | Post-emergence effect at 20 g/ha against KCHSC in % (Bassia scoparia (KCHSC)): 80% | pest or weed control at 80 g/ha (Bassia scoparia (KCHSC)): 90% | pest or weed control at 320 g/ha (Bassia scoparia (KCHSC)): 90% | pest or weed control at 320 g/ha (Lolium rigidum (LOLRI); 320 g/ha): 90% | pest or weed control at 20 g/ha (Viola tricolor (VIOTR)): 80% | pest or weed control at 80 g/ha (Viola tricolor (VIOTR)): 80% | pest or weed control at 320 g/ha (Viola tricolor (VIOTR); 320 g/ha): 90% | Post-emergence effect at 20 g/ha against AMARE in % [7]: 80% | pest or weed control at 80 g/ha [7]: 80% | pest or weed control at 320 g/ha [7]: 90% | pest or weed control at 80 g/ha [8]: 80% | pest or weed control at 320 g/ha [8]: 90% | pest or weed control at 320 g/ha (Avena fatua (AVEFA)): 90%

CSC(Oc1nn(-c2ncccc2F)c(-c2cncc(F)c2)c1Br)C(=O)O (stereo not shown) [Example I-42]
pest or weed control at 320 g/ha (Veronica persica (VERPE)): 80% | Post-emergence effect at 20 g/ha against PHBPU in % ([4]; 20 g/ha): 80% | pest or weed control at 80 g/ha [4]: 80% | pest or weed control at 320 g/ha [4]: 90% | pest or weed control at 80 g/ha [5]: 80% | pest or weed control at 320 g/ha [5]: 90% | pest or weed control at 80 g/ha [6]: 80% | pest or weed control at 320 g/ha [6]: 90% | Post-emergence effect at 80 g/ha against DIGSA in % [1]: 80% | pest or weed control at 320 g/ha ([1]; 320 g/ha): 90% | pest or weed control at 320 g/ha (Setaria viridis (SETVI)): 90% | pest or weed control at 320 g/ha [2, 9]: 90% | pest or weed control at 80 g/ha (Bassia scoparia (KCHSC)): 90% | pest or weed control at 320 g/ha (Bassia scoparia (KCHSC)): 90% | pest or weed control at 320 g/ha (Lolium rigidum (LOLRI); 320 g/ha): 90% | pest or weed control at 20 g/ha (Viola tricolor (VIOTR)): 90% | pest or weed control at 80 g/ha (Viola tricolor (VIOTR)): 90% | pest or weed control at 320 g/ha (Viola tricolor (VIOTR); 320 g/ha): 90% | pest or weed control at 80 g/ha [7]: 90% | pest or weed control at 320 g/ha [7]: 90% | pest or weed control at 80 g/ha [8]: 80% | pest or weed control at 320 g/ha [8]: 90% | pest or weed control at 320 g/ha (Avena fatua (AVEFA)): 100%

COC(=O)C(Oc1nn(-c2ncccc2F)c(-c2cncc(F)c2)c1C1CC1)SC (stereo not shown) [Example I-66]
Post-emergence effect at 80 g/ha against VERPE in % (Veronica persica (VERPE)): 90% | pest or weed control at 320 g/ha (Veronica persica (VERPE)): 90% | pest or weed control at 320 g/ha [4]: 90% | pest or weed control at 80 g/ha [5]: 80% | pest or weed control at 320 g/ha [5]: 90% | pest or weed control at 80 g/ha [6]: 80% | pest or weed control at 320 g/ha [6]: 80% | pest or weed control at 320 g/ha ([1]; 320 g/ha): 80% | pest or weed control at 320 g/ha (Setaria viridis (SETVI)): 80% | pest or weed control at 320 g/ha [2, 9]: 90% | pest or weed control at 320 g/ha (Bassia scoparia (KCHSC)): 90% | pest or weed control at 320 g/ha (Lolium rigidum (LOLRI); 320 g/ha): 90% | pest or weed control at 20 g/ha (Viola tricolor (VIOTR)): 90% | pest or weed control at 80 g/ha (Viola tricolor (VIOTR)): 90% | pest or weed control at 320 g/ha (Viola tricolor (VIOTR); 320 g/ha): 90% | pest or weed control at 80 g/ha [7]: 90% | pest or weed control at 320 g/ha [7]: 90% | pest or weed control at 80 g/ha [8]: 80% | pest or weed control at 320 g/ha [8]: 90% | pest or weed control at 320 g/ha (Avena fatua (AVEFA)): 80%
